Here are results for 87 compounds from the Kinase Knowledgebase extract (Sharma et al. 2016).

The test addresses CDK2 (human) (UniProt P24941). Description: Enzyme Assay.
For the compound `COc1ccc(NC(=O)c2ccc(C(=O)Nc3ccc4scnc4c3)s2)c(C)c1`, the IC50 (as a rule, the point on the concentration scale where inhibition reaches its midpoint) is no less than 40 µM.

As for `O=C(Nc1ccc(-n2cncn2)c(F)c1)c1ccc(C(=O)N2CCOCC2)o1`, the IC50 is no less than 40 µM. As for `O=C(Nc1ccc(-n2cncn2)c(F)c1)c1ccc(C(=O)Nc2ccccc2N2CCOCC2)s1`, the IC50 was no less than 40 µM. For `COc1ccc(NC(=O)c2ccc(C(=O)Nc3ccc(-c4nc[nH]n4)c(F)c3)s2)c(C)c1`, the IC50 is no more than 1 µM. With `Cc1cc(OCCN2CCN(C)CC2)ccc1NC(=O)c1ccc(C(=O)Nc2ccc(-n3cncn3)cc2)s1`, the IC50 is no more than 1 µM.

`O=C(Nc1ccc(-n2cncn2)cc1)c1ccc(C(=O)Nc2cc(F)ccc2F)s1`: the IC50 is no less than 40 µM. `COC(=O)c1cc(OC)ccc1NC(=O)c1ccc(C(=O)Nc2ccc(-n3cncn3)cc2)s1` gave an IC50 of 1 to 40 µM. Consider `O=C(Nc1ccc(-n2cncn2)cc1)c1ccc(C(=O)Nc2nc3ccccc3s2)s1`, for which the IC50 was in the range of 1 to 40 µM. To `COc1ccc(NC(=O)c2ccc(C(=O)Nc3ccc4nc(C)ccc4c3)s2)c(C)c1` belongs no less than 40 µM; to `O=C(NC[C@H](O)c1ccccc1)c1ccc(C(=O)Nc2ccc(-n3cncn3)cc2)s1`, no less than 40 µM; to `CN(C)CCCNC(=O)c1ccc(C(=O)Nc2ccc(-n3cncn3)cc2)s1`, no less than 40 µM. As for `O=C(Nc1ccc(-n2cncn2)c(F)c1)c1ccc(C(=O)Nc2ccccc2Oc2cccnc2)s1`, the figure is no less than 40 µM; as for `O=C(Nc1ccc(Cl)cc1)c1ccc(C(=O)Nc2ccc(-n3cncn3)cc2)s1`, 1 to 40 µM; as for `Cc1cc(NCCN(C)C)ccc1NC(=O)c1ccc(C(=O)Nc2ccc(-n3cncn3)cc2)s1`, 1 to 40 µM. The compound `O=C(NCCc1cccnc1)c1ccc(C(=O)Nc2ccc(-n3cncn3)cc2)s1` gave an IC50 of 1 to 40 µM. The compound `Cc1cc(CN(C)C)ccc1NC(=O)c1ccc(C(=O)Nc2ccc(-n3cncn3)c(F)c2)s1` showed an IC50 of 1 to 40 µM. With `COc1ccc(NC(=O)c2ccc(C(=O)Nc3ccc(-c4nnn[nH]4)cc3)s2)c(C)c1`, the IC50 is no less than 40 µM.

As for `COc1ccc(C(=O)Nc2ccc(C(=O)N3CCC(Oc4cnccn4)CC3)o2)c(C)c1`, the IC50 was no less than 40 µM. In the case of `CC(CN(C)C)NC(=O)c1ccc(C(=O)Nc2ccc(-n3cncn3)cc2)s1` (configuration not stated), the IC50 was no less than 40 µM. Consider `O=C(Nc1ccc(-n2cncn2)cc1)c1ccc(C(=O)Nc2cccc(Cl)c2)s1`, for which the IC50 was 1 to 40 µM. The compound `Cc1cc(CN2CCN(C)CC2)ccc1NC(=O)c1ccc(C(=O)Nc2ccc(-n3cncn3)cc2)s1` yielded an IC50 of no more than 1 µM.

`Cc1cc(N2CCNCC2)ccc1NC(=O)c1ccc(C(=O)Nc2ccc(-n3cncn3)cc2)s1` showed an IC50 of no more than 1 µM. As for `O=C(Nc1ccc(-n2cncn2)cc1)c1ccc(C(=O)Nc2ccc3ncsc3c2)s1`, the figure is no less than 40 µM. With `COc1ccc(NC(=O)c2ccc(C(=O)Nc3ccc(-n4cccn4)cc3)s2)c(C)c1`, the IC50 was no less than 40 µM. Regarding `CN(Cc1ccccc1)C(=O)c1ccc(C(=O)Nc2ccc(-n3cncn3)cc2)s1`, the IC50 is no less than 40 µM. To `O=C(NCCc1c[nH]cn1)c1ccc(C(=O)Nc2ccc(-n3cncn3)cc2)s1` belongs no less than 40 µM.

Compound `O=C(Nc1ccc(-n2cncn2)c(F)c1)c1ccc(C(=O)Nc2ccccc2COc2ccccc2)s1` displayed an IC50 of no less than 40 µM. Take `COc1ccc(NC(=O)c2ccc(C(=O)Nc3ccc(Cn4ccnc4)cc3)s2)c(C)c1`: the IC50 is no less than 40 µM. Turning to `COc1ccc(NC(=O)c2ccc(C(=O)N3CCC(c4ccccn4)C3)s2)c(C)c1` (configuration not stated), the IC50 lay within 1 to 40 µM. With `O=C(NCCN1CCOCC1)c1ccc(C(=O)Nc2ccc(-n3cncn3)cc2)s1`, the IC50 was no less than 40 µM. On to `O=C(NCc1ccccn1)c1ccc(C(=O)Nc2ccc(-n3cncn3)cc2)s1`, for which the concentration for half-maximal inhibition (IC50) was no less than 40 µM. `COc1ccc(NC(=O)c2ccc(C(=O)Nc3ccc(OCCN(C)C)cc3)s2)c(C)c1` gave an IC50 of no less than 40 µM. `COc1cccc(NC(=O)c2ccc(C(=O)Nc3ccc(-n4cncn4)cc3)s2)c1` yielded an IC50 of no less than 40 µM. For the compound `O=C(Nc1ccc(-n2cncn2)cc1)c1ccc(C(=O)Nc2nccs2)s1`, the IC50 is no less than 40 µM. The compound `COc1cccc(C2CCN(C(=O)c3ccc(C(=O)Nc4ccc(-n5cncn5)cc4)s3)C2)c1` (configuration not stated) came in with an IC50 of no less than 40 µM.

On to `Cc1cc(N2CCN(C)CC2)ccc1NC(=O)c1ccc(C(=O)Nc2ccc(-n3cncn3)cc2)s1`, for which the IC50 was no more than 1 µM.

Regarding `Cc1ccccc1NC(=O)c1ccc(C(=O)Nc2ccc(-n3cncn3)cc2)o1`, the IC50 is no more than 1 µM. As for `COc1ccc(NC(=O)c2ccc(C(=O)Nc3ccc(-n4ccnc4)cc3)s2)c(C)c1`, the figure is no less than 40 µM; as for `O=C(Nc1ccc(-n2cncn2)cc1)c1ccc(C(=O)Nc2nc3c(s2)CCCC3)s1`, 1 to 40 µM; as for `COc1ccc(NC(=O)c2ccc(C(=O)Nc3ccc(-n4cncn4)cc3)s2)cc1O`, no less than 40 µM. As to `O=C(Nc1ccc(-n2cncn2)cc1)c1ccc(C(=O)Nc2cccc(-c3cnco3)c2)s1`, the IC50 is no less than 40 µM. To `O=C(Nc1ccc(-n2cncn2)cc1)c1ccc(C(=O)Nc2ccc3c(c2)OCO3)s1` belongs no less than 40 µM. `Cc1cc(CNC(=O)c2ccc(C(=O)Nc3ccc(-n4cncn4)cc3)s2)no1`: the IC50 was no less than 40 µM. In turn, `COc1ccc(NC(=O)c2ccc(C(=O)Nc3ccc(N4CCNCC4)cc3)s2)c(C)c1` came in with an IC50 of no less than 40 µM.

The compound `COc1ccc(NC(=O)c2ccc(C(=O)Nc3ccc(-n4cncn4)cc3)s2)cc1Cl` yielded an IC50 of 1 to 40 µM. As to `COc1ccc(NC(=O)c2ccc(C(=O)Nc3ccc(-c4cnco4)cc3)s2)c(C)c1`, the IC50 was no less than 40 µM. Take `O=C(Nc1ccc(-n2cncn2)c(F)c1)c1ccc(C(=O)Nc2ccccc2-c2ccccc2)s1`: the IC50 was 1 to 40 µM.

The compound `CN1CCN(C(=O)c2ccc(C(=O)Nc3ccc(-n4cncn4)cc3)s2)CC1` displayed an IC50 of no less than 40 µM. `CN(C(=O)c1ccc(C(=O)Nc2ccc(-n3cncn3)c(F)c2)o1)C1CCCCC1` showed an IC50 of no less than 40 µM. To `COc1ccccc1NC(=O)c1ccc(C(=O)Nc2ccc(-n3cncn3)c(F)c2)s1` belongs no less than 40 µM; to `COc1cccc(NC(=O)c2ccc(C(=O)Nc3ccc(-n4cncn4)cc3)s2)c1OC`, 1 to 40 µM. Regarding `O=C(NCCc1ccccc1)c1ccc(C(=O)Nc2ccc(-n3cncn3)cc2)s1`, the IC50 was no less than 40 µM.

The compound `CN1CCCC1CCNC(=O)c1ccc(C(=O)Nc2ccc(-n3cncn3)cc2)s1` (configuration not stated) yielded an IC50 of no less than 40 µM. `O=C(Nc1ccc(-n2cncn2)cc1)c1ccc(C(=O)N2CCOCC2)s1` gave an IC50 of no less than 40 µM. On to `O=C(NCc1ccccc1)c1ccc(C(=O)Nc2ccc(-n3cncn3)cc2)s1`, for which the IC50 lay in the range of 1 to 40 µM. As for `COc1ccc(NC(=O)c2ccc(C(=O)Nc3ccc4c(c3)OCO4)s2)c(C)c1`, the IC50 is no less than 40 µM.

Compound `CN1CCC(NC(=O)c2ccc(C(=O)Nc3ccc(-n4cncn4)cc3)s2)CC1` gave an IC50 of no less than 40 µM. To `COc1ccc(NC(=O)c2ccc(C(=O)Nc3ccc(C(N)=O)cc3)s2)c(C)c1` belongs no less than 40 µM; to `O=C(Nc1ccc(C(=O)Nc2ccc(-n3cncn3)cc2)o1)c1ccncc1`, no less than 40 µM; to `CC(C)NC(=O)c1ccc(C(=O)Nc2ccc(-n3cncn3)cc2)s1`, no less than 40 µM.

As for `COc1ccc(NC(=O)c2ccc(C(=O)Nc3ccc(C#N)cc3)s2)c(C)c1`, the IC50 was no less than 40 µM.

`COc1ccc(NC(=O)c2ccc(C(=O)Nc3ccc(-n4cncn4)c(F)c3)o2)c(C)c1` had an IC50 of no more than 1 µM. In turn, `O=C(Nc1ccc(-n2cncn2)cc1)c1ccc(C(=O)N2CCc3ccccc3C2)s1` had an IC50 of 1 to 40 µM.

Turning to `COc1ccc(NC(=O)c2ccc(C(=O)Nc3ccc(F)cc3-n3cncn3)s2)c(C)c1`, the half-inhibitory concentration (IC50) lay in the range of 1 to 40 µM. Compound `O=C(Nc1ccc(-n2cncn2)cc1)c1ccc(C(=O)N2CCN(C3CCCC3)CC2)s1` displayed an IC50 of no less than 40 µM. In the case of `CN1CCC(N(C)C(=O)c2ccc(C(=O)Nc3ccc(-n4cncn4)c(F)c3)o2)CC1`, the IC50 is no less than 40 µM. `O=C(NCc1ccncc1)c1ccc(C(=O)Nc2ccc(-n3cncn3)cc2)s1` showed an IC50 of no less than 40 µM. In turn, `O=C(Nc1ccccc1)c1ccc(C(=O)Nc2ccc(-n3cncn3)cc2)s1` returned an IC50 of no less than 40 µM. Take `O=C(Nc1ccc(-n2cncn2)cc1)c1ccc(C(=O)NC2CCCCC2)o1`: the IC50 was no more than 1 µM. `O=C(Nc1ccc(-n2cncn2)cc1)c1ccc(NC(=O)C2CCCCC2)o1` had an IC50 of no less than 40 µM. `CN(C(=O)c1ccc(C(=O)Nc2ccc(-n3cncn3)cc2)s1)C1CCCCC1` yielded an IC50 of no more than 1 µM.

In the case of `COc1ccc(NC(=O)c2ccc(C(=O)Nc3ccc(-c4csnn4)cc3)s2)c(C)c1`, the IC50 is no less than 40 µM. For the compound `COc1ccc(N(C)C(=O)c2ccc(C(=O)Nc3ccc(-n4cncn4)cc3)s2)cc1`, the IC50 is 1 to 40 µM.

On to `COc1ccc(C(=O)Nc2ccc(C(=O)Nc3ccc(-c4nc[nH]n4)c(F)c3)s2)c(C)c1`, for which the IC50 was no more than 1 µM. Compound `CN1CCN(c2ccccc2NC(=O)c2ccc(C(=O)Nc3ccc(-n4cncn4)c(F)c3)s2)CC1` yielded an IC50 of no less than 40 µM. Take `CCCCN(C)C(=O)c1ccc(C(=O)Nc2ccc(-n3cncn3)cc2)s1`: the IC50 is no less than 40 µM. The compound `Cc1cc(C)nc(NC(=O)c2ccc(C(=O)Nc3ccc(-n4cncn4)cc3)s2)c1` came in with an IC50 of no less than 40 µM. On to `CC(=O)N1CCC(NC(=O)c2ccc(C(=O)Nc3ccc(-n4cncn4)cc3)s2)CC1`, for which the 50% inhibitory concentration (IC50) fell in the range of 1 to 40 µM. With `Cc1ccccc1NC(=O)c1ccc(C(=O)Nc2ccc(-n3cncn3)cc2)s1`, the IC50 was no more than 1 µM. In turn, `C[C@H](NC(=O)c1ccc(C(=O)Nc2ccc(-n3cncn3)c(F)c2)o1)C1CCCCC1` displayed an IC50 of no more than 1 µM.

Take `Cc1cc(O)ccc1NC(=O)c1ccc(C(=O)Nc2ccc(-n3cncn3)cc2)s1`: the IC50 was no more than 1 µM. `O=C(Nc1ccc(-n2cncn2)c(F)c1)c1ccc(C(=O)Nc2ccccc2F)s1` gave an IC50 of no more than 1 µM.

Consider `C[C@@H](NC(=O)c1ccc(C(=O)Nc2ccc(-n3cncn3)c(F)c2)o1)C1CCCCC1`, for which the IC50 is 1 to 40 µM. To `O=C(Nc1ccc(-n2cncn2)c(F)c1)c1ccc(C(=O)Nc2ccccc2-n2cccn2)s1` belongs no less than 40 µM; to `O=C(Nc1ccc(-n2cncn2)c(F)c1)c1ccc(C(=O)Nc2ccccc2Oc2ccccc2)s1`, no less than 40 µM; to `COc1ccc(NC(=O)c2ccc(C(=O)Nc3ccc(-n4cncn4)cc3)o2)c(C)c1`, no more than 1 µM. As to `O=C(Nc1ccc(-n2cncn2)cc1)c1ccc(C(=O)Nc2cc(-c3ccco3)n[nH]2)s1`, the IC50 is no less than 40 µM.
